Source: patent US20190070165A1, “N-HYDROXYISOQUINOLINEDIONE INHIBITORS OF HBV REPLICATION” (Saint Louis University, priority 2016, published 2019)

Legend:
HBV polymerase = target: T1, HBV polymerase (Hepatitis B virus genotype D subtype ayw, UniProt P03156); test: Endogenous polymerase reaction (EPR) in isolated HBV capsids; format: biochemical; conditions: inhibitors at 4× EC50; #138 and #211 at 30 μM; ddTTP 5.7 μM
T1 construct: expressed in transfected cells; host or cells: HepDES19 (HepG2 with a stably transfected HBV genotype D genome)
From the text: Anti-RNaseH activity is implied from their preferential suppression of the plus-polarity DNA strand (FIG. 4), but strand-preferential inhibition could also result from inhibiting the polymerase also. This is because positive-polarity DNA synthesis can be suppressed both directly by inhibiting the RNaseH enzyme and indirectly by reducing the amount of negative-polarity DNA strand that templates the positive-polarity strand, whereas minus-polarity DNA synthesis can only be suppressed by chain termination. To determine if the efficacy of these compounds was due to inhibition of the HBV polymerase, capsids isolated from HepDES19 cells were tested in the endogenous polymerase reaction (EPR) to measure DNA chain elongation by the HBV polymerase along the HBV nucleic acids within the capsids. Isolated HBV capsids were supplied with dATP, dTTP, dGTP, and [α^32P]dCTP in the presence of inhibitors at 4× their EC50 values; negative control compounds #138 and #211 were tested at 30 μM. 1% DMSO was used as a vehicle control, and ddTTP (5.7 μM) was the positive control polymerase inhibitor. Samples were incubated at 37° C. for 7 hours to permit DNA chain elongation by the encapsidated HBV polymerase. Nucleic acids were purified, resolved on a 0.8% agarose gel and detected by autoradiography. DNAs from HBV capsids treated with the compounds incorporated ^32P similarly to DMSO control (FIG. 5).
HBV cores were harvested from HepDES19 cells grown in the absence of tetracycline for 20 days using polyethylene glycol 8000 precipitation (Guo et al., 2003). Cells were rinsed in PBS and lysed in 1 mL core lysis buffer with 2 μL of protease inhibitor cocktail (Sigma) at room temperature for 10 minutes. Cell lysates were collected and 10 mM CaCl2) was added. The lysate was centrifuged for 5 minutes at 21,000 g, the supernatant was incubated with 150 U of micrococcal nuclease at 37° C. for 60 minutes, and then 27 mM EDTA was added to stop the reaction. 333 μL of 26% PEG8000 was added to precipitate core particles and incubated at 4° C. for 6 hours. The samples were centrifuged at 21,000 g for 20 minutes at 4° C. The supernatant was removed and the pellet was resuspended in 250 μL of 10 mM Tris buffer pH 7.5. Cores were stored at −80° C.
The endogenous polymerase reaction was done using a modified procedure from (Nguyen et al., 2007). […] These nucleic acids were dissolved in tris-EDTA buffer, resolved on a 0.8% agarose gel, transferred to a HyBondN membrane, and detected by autoradiography. Band intensities for each experiment were quantified using Image J and percent inhibition was calculated relative to the DMSO-treated reactions. Statistical significance of variation in band intensities was evaluated using a one-way ANOVA with a Dunnett post hoc analysis, with p=0.05 indicating significance.

HBV RNaseH = HBV RNaseH (Hepatitis B virus genotype D subtype ayw, UniProt P03156); test: Molecular beacon RNaseH assay
Sequence of HBV RNaseH (P03156 671-832): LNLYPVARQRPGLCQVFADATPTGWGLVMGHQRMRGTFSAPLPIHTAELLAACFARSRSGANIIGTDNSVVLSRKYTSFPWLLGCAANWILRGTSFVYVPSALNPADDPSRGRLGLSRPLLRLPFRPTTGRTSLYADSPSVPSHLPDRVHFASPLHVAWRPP

T1 sequence (P03156 whole entry): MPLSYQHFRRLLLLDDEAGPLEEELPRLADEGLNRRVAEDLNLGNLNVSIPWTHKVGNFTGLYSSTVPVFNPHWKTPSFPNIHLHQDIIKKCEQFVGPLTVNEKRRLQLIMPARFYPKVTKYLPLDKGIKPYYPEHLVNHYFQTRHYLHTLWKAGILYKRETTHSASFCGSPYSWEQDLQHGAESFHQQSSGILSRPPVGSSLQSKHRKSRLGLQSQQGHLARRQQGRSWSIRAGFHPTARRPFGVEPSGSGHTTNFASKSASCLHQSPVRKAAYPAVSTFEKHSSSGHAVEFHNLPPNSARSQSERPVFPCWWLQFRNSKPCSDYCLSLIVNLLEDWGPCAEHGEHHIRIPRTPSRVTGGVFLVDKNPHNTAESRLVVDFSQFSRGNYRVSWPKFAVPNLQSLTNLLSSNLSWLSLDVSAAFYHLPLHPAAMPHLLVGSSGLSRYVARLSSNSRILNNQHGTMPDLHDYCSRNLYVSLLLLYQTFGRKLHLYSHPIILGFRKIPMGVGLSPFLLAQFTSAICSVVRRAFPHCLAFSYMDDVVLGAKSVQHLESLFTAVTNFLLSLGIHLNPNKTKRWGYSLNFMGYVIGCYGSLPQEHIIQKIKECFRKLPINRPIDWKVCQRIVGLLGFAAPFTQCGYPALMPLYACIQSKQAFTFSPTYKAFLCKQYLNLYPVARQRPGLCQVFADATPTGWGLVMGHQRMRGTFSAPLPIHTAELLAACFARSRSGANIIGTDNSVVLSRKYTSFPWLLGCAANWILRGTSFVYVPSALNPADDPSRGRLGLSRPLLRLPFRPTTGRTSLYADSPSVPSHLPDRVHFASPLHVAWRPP

## O=C1c2ccccc2C(=O)N1O [Compound 138]
HBV polymerase
  effect on 32P incorporation in EPR: None of the HBV inhibitors or the two negative control compounds (#138 and 211) significantly altered incorporation
HBV RNaseH; 2.1 μg purified HBV RNaseH
  inhibition in the molecular beacon assay: had no effect on the rate of substrate degradation
HBV RNaseH; Table 3, 0 to 500 μM
  Inhibition of HBV RNaseH, Molecular Beacon cleavage assay: − (No inhibition detected at 500 μM)
